Test system: Mpl-expressing Ba/F3 cell line (human mpl gene)
Experiment: Measurement of thrombopoietin (TPO) activity: viable cell count of Mpl-expressing Ba/F3 cell line (Cell Count Reagent SF, absorbance 450 nm)
Type: cell-based
Conditions: for Concentration: concentration corresponding to the maximum TPO activity value; for TPO activity: maximum TPO activity value, ODt/ODs×100 relative to maximum reaction of human TPO, Mpl-expressing Ba/F3 cells cultured at 37° C. for one day, at the concentration given
Procedure: The TPO activities of the compounds of the invention obtained in the aforementioned examples were measured by the procedure described below, for evaluation of their thrombopoietic effects.
Establishment of Mpl-expressing Ba/F3 Cell Line
The human mpl gene was cloned from cDNAs of the human erythroleukemia cell line HEL by PCR, and was incorporated into pCOS1 to construct an expression vector. The expression vector was transfected into Ba/F3 cells by electroporation method, and an Mpl-expressing Ba/F3 clone was established.
Measurement of Thrombopoietin (TPO) Activity
The cytokine-eliminated Mpl-expressing Ba/F3 line was plated in a 96-well plate at 25,000 cells/well. DMSO solutions containing the compounds obtained in each of the examples were then prepared to different specified concentration ranges, and each solution was added to the Mpl-expressing Ba/F3 cell line (final DMSO concentration: ≦0.1%), and the cell were cultured at 37° C. for one day. Human TPO (by R&D Systems or Genzyme) was used as a positive control.
Each of the cultured Mpl-expressing Ba/F3 cell lines was subjected to absorbance measurement at a wavelength of 450 nm (reference wavelength: 620 nm), corresponding to the viable cell count, using Cell Count Reagent SF (by Nacalai Tesque Inc.). The TPO activity of each compound for the Mpl-expressing Ba/F3 cell line was determined based on the following formula. TPO activity (%)=ODt/ODs×100
ODs: Absorbance at maximum reaction of human TPO (wavelength: 450-620 nm).
ODt: Absorbance of test solution (wavelength: 450-620 nm).
Tables 1 and 2 show the maximum TPO activity values and the corresponding concentrations of each compound, as obtained by the test described above.

| Compound | Concentration [µM] | TPO activity [%] |
| --- | --- | --- |
| NCCCC[C@H](NC(=O)c1cccc2cc(O)ccc12)C(=O)Nc1ccc(C(c2ccc(NC(=O)[C@H](CCCCN)NC(=O)c3cccc4cc(O)ccc34)cc2)c2ccc(NC(=O)[C@H](CCCCN)NC(=O)c3cccc4cc(O)ccc34)cc2)cc1.O=C(O)C(F)(F)F [Example 200, tris[4-[N-α-(6-hydroxynaphthalen-1-yl)carbonyl-L-lysyl]aminophenyl]methane trifluoroacetate] | 25 | 144 |
| NCCCC[C@@H](NC(=O)Cc1c[nH]c2ccccc12)C(=O)Nc1ccc(N(c2ccc(NC(=O)[C@@H](CCCCN)NC(=O)Cc3c[nH]c4ccccc34)cc2)c2ccc(NC(=O)[C@@H](CCCCN)NC(=O)Cc3c[nH]c4ccccc34)cc2)cc1.O=C(O)C(F)(F)F [Example 201, tris[4-[N-α-[2-(1H-indol-3-yl)acetyl]-D-lysyl]aminophenyl]amine trifluoroacetate] | 25 | 110 |

From patent publication US6887890B2, “Compounds exhibiting thrombopoietin-like activities” (Chugai Seiyaku Kabushiki Kaisha, priority 2000, dated 2005)
